One may read the IC50 as the concentration at which inhibition is half-maximal.

The text below walks through data of PubChem BioAssay AID1671353.

In this assay the target is Serine/threonine-protein kinase pim-1 (Homo sapiens) (UniProt P11309). As to the kind of experiment: PIM1 kinase inhibitors, dose response, biochemical, Z'-LYTE FRET, direct format, recombinant human (AID 1671353). Particulars: Z'-LYTE FRET peptide phosphorylation.

With `Brc1c(Br)c(Br)c2n[nH]nc2c1Br`, the IC50 is 1.97 µM.
